# Measured values: patent US20240254156A1, “NOVEL ISOFLAVONE COMPOUND” (NABOCUL COSMETICS CO., LTD., priority 2021, published 2024)
# What was measured:
# [1] = system: IL-6 production in RAW264.7 cells; experiment: LPS-induced IL-6 production in RAW264.7 cells (ELISA); assay type: cell-based, mouse; details: 1, 5, 10, 50 and 100 μM, added 3 h before LPS 1 μg/mL, supernatant after 24 h, FIG. 11
# Method: The Ceratonia siliqua C obtained in Example 2 was used to examine the effect of the Ceratonia siliqua C on the production of IL-6 that is an inflammatory cytokine.
# In this test, an RAW264.7 cell, a mouse macrophage-derived cell line was used. RAW264.7 cells were cultured in a DMEM medium (containing 10% FBS, 100 U/mL penicillin and […] streptomycin) in the presence of 5% CO2 at 37° C. and saturated humidity.
# Each well of a 96-well plate was seeded with 8×10^3 RAW264.7 cells, and the cells were cultured in a CO2 incubator for 24 hours. This was divided into a blank control group, a positive control group and a test group. A 100 μL portion of a DMEM medium was added to each well of the blank control group; a 100 μL portion of a solution of dexamethasone (DXM) dissolved in the DMEM medium was added to each well of the positive control group (a final concentration of dexamethasone: 20 μM); and a 100 μL portion of each of solutions obtained by appropriately diluting the Ceratonia siliqua C with the DMEM medium was added to each well of the test group to provide a different concentration from each other (final concentration: 1 μM, 5 μM, 10 μM, 50 μM and 100 μM). 3 hours later, LPS (1 μg/mL) was added to each well to induce inflammation. 24 hours later, the supernatant was collected and the IL-6 content in the supernatant was measured with an IL-6 quantitative ELISA kit. […]
# [2] = system: aquaporin 3 (AQP3) gene; experiment: aquaporin 3 gene mRNA expression in HaCaT cells (QPCR); assay type: cell-based, human
# Method: (§1) The Ceratonia siliqua C obtained in Example 2 was used to examine the effect of the Ceratonia siliqua C on the expression of aquaporin 3 (AQP3) gene and filaggrin 2 (FLG2) gene in a HaCaT cell, a human epidermis-derived keratinocyte cell line.
# (§2) First, the HaCaT cells were cultured in a DMEM medium (containing 10% FBS, 100 U/mL penicillin and […] streptomycin) in the presence of 5% CO2 at 37° C. and saturated humidity. Next, the HaCaT cells adjusted to a cell concentration of 5×10^5 cells/mL were seeded in each well of a 6-well cell culture plate and cultured in a CO2 incubator (5% CO2, 37° C.) for 24 hours. Thereafter, the Ceratonia siliqua C isolated in Example 2 was added to each well to provide a final concentration different from each other. Specifically, the final concentrations of Ceratonia siliqua C in the HaCaT cell culture medium were 1 μM, 5 μM, 10 μM, 50 μM and 100 μM, respectively. A well without the Ceratonia siliqua C added was used as a control (0 μM). After addition, they were subjected to culture for 24 hours.
# (§3) After completion of the culture, the HaCaT cells were collected from each well, and total RNA was extracted with an RNA extraction reagent (RNAzol®, a product available from Molecular Research Center, Inc.). […]
# [3] = system: filaggrin 2 (FLG2) gene; experiment: filaggrin 2 gene mRNA expression in HaCaT cells (QPCR); assay type: cell-based, human
# Method: as §1, §2, §3
# [4] = 10 μM (highest expression promoting effect), 24 h, relative to control
smiles,measurement,setting,value
COc1ccc(-c2coc3c(OC)c(O)c(O[C@@H]4O[C@H](CO)[C@@H](O)[C@H](O)[C@H]4O)cc3c2=O)cc1 [Ceratonia siliqua C],production of IL-6 by LPS induction,[1],inhibit the production of IL-6 in a concentration-dependent manner
same,increase of mRNA expression level of aquaporin 3,[2]; [4],2.5 times
same,mRNA expression level of aquaporin 3 compared to the control,"[2]; 1-100 μM, 24 h culture, FIG. 12",greatly increased the mRNA expression level
same,increase of mRNA expression level of filaggrin 2,[3]; [4],1.35 times
same,mRNA expression level of filaggrin 2 compared to the control,"[3]; 1-100 μM, 24 h culture, FIG. 13",greatly increased the mRNA expression level
